Source: the supplement of paper PMC7017272
± gives the standard deviation of the averaged measurements.

How the values were obtained:
Conditions in all cases: treatment time: 3 days
UT-SCC-24A = test: drug sensitivity score (DSS); higher = more sensitive
Procedure: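 HNSCC cell lines (500 cells/well, 384-well) were cultured on plastic, on top of (2D) or embedded (3D) in Matrigel or human leiomyoma matrix Myogel (500 ug/mL; Myogel 3D mixed with rat collagen I). Cells were treated for 3 days with 5 ten-fold concentrations of each drug, and viability was read by CellTiter-Glo. Suffixes _1/_2/_3 on drug names are replicates.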

UT-SCC-40 [1] = test: relative IC50 (midpoint of the fitted curve; maximal inhibition may be below 50%); higher = less potent
How it was run: (§1)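 Viability of HPV-negative HNSCC cell lines was measured by CellTiter-Glo 2.0 luminescence. Cells were seeded at 500 cells/well in 384-well plates on plastic, on Matrigel- or Myogel-coated wells (500 µg/mL), or embedded in Matrigel or Myogel plus rat collagen I, then given compounds at five 10-fold concentrations for 3 days, with signals normalised to vehicle (0.1% DMSO) and cell-killing control wells. Fitting of percent-inhibition dose–response curves in the FIMM pipeline yielded IC50, maximal inhibition and drug sensitivity score.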

UT-SCC-81 [2] = test: as above
How it was run: as §1

UT-SCC-24B [3] = test: as above
How it was run: as §1

UT-SCC-28 [4] = test: as above
How it was run: as §1

UT-SCC-44 = test: maximal % inhibition of viability relative to DMSO; higher = stronger effect
Procedure: (§2)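 HNSCC cell lines (500 cells/well, 384-well) were cultured on plastic, on top of (2D) or embedded (3D) in Matrigel or human leiomyoma matrix Myogel (500 ug/mL; Myogel 3D mixed with rat collagen I). Cells were treated for 3 days with 5 ten-fold concentrations of each drug, and viability was read by CellTiter-Glo. Viability was normalised to DMSO and benzethonium chloride controls and fitted with the FIMM DSRT pipeline to give IC50 (nM), maximal % inhibition and DSS. Suffixes _1/_2/_3 are replicates. Only inhibition-mode (IC50) fits are kept.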

UT-SCC-8 = test: as above
Procedure: as §2

UT-SCC-42A = test: as above
Procedure: as §2

UT-SCC-40 [5] = test: as above
Procedure: as §2

UT-SCC-81 [6] = test: as above
Procedure: as §2

UT-SCC-24B [7] = test: as above
Procedure: as §2

UT-SCC-73 = test: as above
Procedure: as §2

UT-SCC-106A = test: as above
Procedure: as §2

UT-SCC-14 = test: as above
Procedure: as §2

UT-SCC-28 [8] = test: as above
Procedure: as §2

UT-SCC-42B = test: as above
Procedure: as §2

[9] = culture condition: embedded in Matrigel
[10] = culture condition: embedded in Myogel + collagen I
[11] = culture condition: on top of Matrigel
[12] = culture condition: on top of Myogel
[13] = culture condition: plastic 2D (no matrix)

COc1ncc(-c2ccc3nccc(-c4ccnnc4)c3c2)cc1NS(=O)(=O)c1ccc(F)cc1F [Omipalisib]
drug sensitivity score (UT-SCC-24A; [9]): 27 ± 2.8 DSS | drug sensitivity score (UT-SCC-24A; [10]): 22.6 ± 1.6 DSS | drug sensitivity score (UT-SCC-24A; [11]): 25.5 ± 1.2 DSS | drug sensitivity score (UT-SCC-24A; [12]): 20.4 ± 1.8 DSS | drug sensitivity score (UT-SCC-24A; [13]): 25 ± 1.6 DSS | relative IC50 (UT-SCC-40 [1]; [9]): 5.31 nM | relative IC50 (UT-SCC-40 [1]; [10]): 9.86 nM | relative IC50 (UT-SCC-40 [1]; [11]): 5.3 nM | relative IC50 (UT-SCC-40 [1]; [12]): 12.9 nM | relative IC50 (UT-SCC-40 [1]; [13]): 11.7 nM | relative IC50 (UT-SCC-81 [2]; [9]): 4 nM | relative IC50 (UT-SCC-81 [2]; [10]): 8.83 nM | relative IC50 (UT-SCC-81 [2]; [11]): 5.22 nM | relative IC50 (UT-SCC-81 [2]; [12]): 9.49 nM | relative IC50 (UT-SCC-81 [2]; [13]): 8.77 nM | relative IC50 (UT-SCC-24B [3]; [9]): 11 nM | relative IC50 (UT-SCC-24B [3]; [10]): 9.4 nM | relative IC50 (UT-SCC-24B [3]; [11]): 11.6 nM | relative IC50 (UT-SCC-24B [3]; [12]): 15.8 nM | relative IC50 (UT-SCC-24B [3]; [13]): 12.8 nM | relative IC50 (UT-SCC-28 [4]; [9]): 2.99 nM | relative IC50 (UT-SCC-28 [4]; [10]): 12.8 nM | relative IC50 (UT-SCC-28 [4]; [11]): 5.19 nM | relative IC50 (UT-SCC-28 [4]; [13]): 5.26 nM | maximal % inhibition of viability (UT-SCC-44; [9]): 52.5 ± 1.9% | maximal % inhibition of viability (UT-SCC-44; [10]): 58.5 ± 5.7% | maximal % inhibition of viability (UT-SCC-44; [11]): 54.8 ± 4.2% | maximal % inhibition of viability (UT-SCC-44; [12]): 62.1 ± 5.8% | maximal % inhibition of viability (UT-SCC-44; [13]): 56 ± 3.9% | maximal % inhibition of viability (UT-SCC-8; [9]): 99.57 ± 0.25% | maximal % inhibition of viability (UT-SCC-8; [10]): 98.2 ± 0.56% | maximal % inhibition of viability (UT-SCC-8; [11]): 98.5 ± 1.1% | maximal % inhibition of viability (UT-SCC-8; [12]): 96.8 ± 1% | maximal % inhibition of viability (UT-SCC-8; [13]): 97.87 ± 0.61% | maximal % inhibition of viability (UT-SCC-42A; [9]): 97.27 ± 0.59% | maximal % inhibition of viability (UT-SCC-42A; [10]): 87.8 ± 1.7% | maximal % inhibition of viability (UT-SCC-42A; [11]): 96.13 ± 0.86% | maximal % inhibition of viability (UT-SCC-42A; [12]): 90.83 ± 0.76% | maximal % inhibition of viability (UT-SCC-42A; [13]): 92.7 ± 1.3% | maximal % inhibition of viability (UT-SCC-40 [5]; [9]): 98.67 ± 0.4% | maximal % inhibition of viability (UT-SCC-40 [5]; [10]): 89.9 ± 0.76% | maximal % inhibition of viability (UT-SCC-40 [5]; [11]): 96.4 ± 1.7% | maximal % inhibition of viability (UT-SCC-40 [5]; [12]): 85.8 ± 1.6% | maximal % inhibition of viability (UT-SCC-40 [5]; [13]): 88.4 ± 2% | maximal % inhibition of viability (UT-SCC-81 [6]; [9]): 97.77 ± 0.51% | maximal % inhibition of viability (UT-SCC-81 [6]; [10]): 89.1 ± 0.91% | maximal % inhibition of viability (UT-SCC-81 [6]; [11]): 96.83 ± 0.76% | maximal % inhibition of viability (UT-SCC-81 [6]; [12]): 90.3 ± 1.4% | maximal % inhibition of viability (UT-SCC-81 [6]; [13]): 91.9 ± 2.2% | maximal % inhibition of viability (UT-SCC-24B [7]; [9]): 95.6 ± 0.79% | maximal % inhibition of viability (UT-SCC-24B [7]; [10]): 96.6 ± 1.4% | maximal % inhibition of viability (UT-SCC-24B [7]; [11]): 94.8 ± 1.3% | maximal % inhibition of viability (UT-SCC-24B [7]; [12]): 92 ± 1.2% | maximal % inhibition of viability (UT-SCC-24B [7]; [13]): 96.27 ± 0.55% | maximal % inhibition of viability (UT-SCC-73; [9]): 91.2 ± 0.27% | maximal % inhibition of viability (UT-SCC-73; [10]): 89.6 ± 3.3% | maximal % inhibition of viability (UT-SCC-73; [11]): 90.7 ± 1.4% | maximal % inhibition of viability (UT-SCC-73; [12]): 90 ± 1.3% | maximal % inhibition of viability (UT-SCC-73; [13]): 87.9 ± 1.4% | maximal % inhibition of viability (UT-SCC-106A; [9]): 79.7 ± 2.2% | maximal % inhibition of viability (UT-SCC-106A; [10]): 64.2 ± 3.3% | maximal % inhibition of viability (UT-SCC-106A; [11]): 81.2 ± 0.87% | maximal % inhibition of viability (UT-SCC-106A; [12]): 69.7 ± 2.8% | maximal % inhibition of viability (UT-SCC-106A; [13]): 81.53 ± 0.67% | maximal % inhibition of viability (UT-SCC-14; [9]): 94.8 ± 1.1% | maximal % inhibition of viability (UT-SCC-14; [10]): 92.2 ± 1.3% | maximal % inhibition of viability (UT-SCC-14; [11]): 93.9 ± 1.9% | maximal % inhibition of viability (UT-SCC-14; [12]): 90 ± 2.3% | maximal % inhibition of viability (UT-SCC-14; [13]): 92.47 ± 0.81% | maximal % inhibition of viability (UT-SCC-28 [8]; [9]): 60.7 ± 5.8% | maximal % inhibition of viability (UT-SCC-28 [8]; [10]): 83 ± 5.5% | maximal % inhibition of viability (UT-SCC-28 [8]; [11]): 64.3 ± 4.8% | maximal % inhibition of viability (UT-SCC-28 [8]; [13]): 60.8 ± 3.6% | maximal % inhibition of viability (UT-SCC-42B; [9]): 96.3 ± 0.7% | maximal % inhibition of viability (UT-SCC-42B; [11]): 91.1 ± 1.4% | maximal % inhibition of viability (UT-SCC-42B; [12]): 84 ± 1.2% | maximal % inhibition of viability (UT-SCC-42B; [13]): 86.7 ± 1.1%
